Consider one compound from patent US4087421A, “Substituted benzodiazepines and method of use” (American Cyanamid Company, priority 1977, dated 1978).

A short description of test [1]: reversible ptosis test. The test is classed as in vivo. To be noted: oral, rats. Here is the method: A useful test for anti-psychotic activity consists of measuring ptosis in animals.
Ptosis is defined as closure of the palpebral aperture (eyelid) greater than 70%. The compounds to be tested were administered orally to groups of 10 rats each. Periodically after treatment the rats were gently placed on the cage top and examined for 90 seconds for signs of ptosis. This manipulation eliminates spontaneous ptosis. The rats were then dropped from a height of about 18 inches (exteroceptive stimulation) onto the cage top to test for reversibility of ptosis. Reversible ptosis is defined as less than 70% closure of the palpebral aperture for longer than one minute after the exteroceptive stimulation and is indicative of neuroleptic activity of the drug administered.

A short description of test [2]: Discrete Trial Conditioned Avoidance Test. The test is classed as in vivo, male Long-Evans rats. To be noted: Rattus norvegicus, read-out: ED50 (reduces avoidance response by 50% as compared to controls); oral, male Long-Evans rats. Here is the method: In this test the compounds are administered orally to male Long-Evans rats in a universal starch vehicle. The rats have been pre-conditioned to make a 70% avoidance response. The rats are placed in individual cages and a warning tone is sounded every 20 seconds. Each rat has the opportunity to press a bar which, if done within 5 seconds, prevents an electric shock through the grid floor of the cage and is termed an avoidance response. Each rat is given 50 trials and a score of avoidance responses is kept. The drug is administered at various dose levels. […]

Test [3] can be described thus: "writhing syndrome" test for analgesic activity (phenyl p-quinone). To be noted: 6.25 mg/kg oral; control approximately 30 per pair; active if 18 or less. The test is classed as in vivo, male Swiss albino mice. The procedure:
This method is based upon the reduction of the number of writhes following the intraperitoneal injection of one mg./kg. of body weight of phenyl p-quinone in male Swiss albino mice weighing 15-25 g. The syndrome is characterized by intermittent contractions of the abdomen, twisting and turning of the trunk, and extension of the hind legs beginning 3 to 5 minutes after injection of the phenyl p-quinone. The test compounds are administered orally at the indicated dose to groups of 2 mice each, 30 minutes before injection of the phenyl p-quinone.

Test [4] in a line: reduction of spontaneous motor activity (Animax Activity Counter). The test is classed as in vivo. Particulars: Rattus norvegicus, 5 min; oral, rats, 5 minute period; read-out: MDD50 (effective dose that causes a 50% reduction in motor activity). Here is the method:
A useful test for anti-psychotic activity consists of measuring the reduction of spontaneous motor activity in animals.
Groups of 4 rats are treated orally with the test compound dissolved or suspended in starch vehicle at the maximum tolerated dose. At the estimated time of peak effect, the animals are placed singly into an Animax Activity Counter and the activity of each rat is recorded over a 5 minute period. The activity counts are compared to historical or parallel control values to determine significant increased or decreased locomotor activity.

Test [5] is described as follows: modified Randall and Selitto analgesic test, brewers yeast inflamed paw. Particulars: 200 mg/Kg oral; two hours after yeast; active if T/C ≥ 1.37. It counts as in vivo, rats. The procedure:
To determine analgesic activity, a modification of the method of Randall and Selitto [Arch. Int. […] This test measures the pain threshold of rats whose paws are made sensitive to pressure by the injection of 0.1 ml. of a 20% aqueous suspension of brewers yeast into the plantar surface of the left hind paw. Constantly increasing force (16 g/second) is applied to the swollen paw using an Analgesy Meter, Ugo Basile. The pressure is cut off at 250 g. of force when there is no response (sudden struggle or vocalization). […] Pressure-pain thresholds are always recorded two hours after administration of Brewers' yeast. Test compounds are administered at the same time as the yeast, at an oral dose of 200 mg/Kg. Ratios of treated (T)/control (C) reaction thresholds are calculated as estimates of analgesic efficacy (degree of analgesia obtainable).

“And” between values parts separate entries of the source, which are not always exact repeats. Equal entries are not always repeated.

As for `CN1CCN(C2=Nc3ccccc3Nc3cscc32)CC1` [10-(4-Methyl-1-piperazinyl)-4H-thieno[3,4-b][1,5]benzodiazepine], in test [1], the “ED50 (dose estimated to create reversible ptosis in 50% of the animals)” value was 13 mg/kg. The ED50 turned out to be 7 mg/kg in test [2] and 6.1 mg/kg in test [4]. Also, the “No. of Writhes Per Pair” value in test [3] was 4 and 2. For the same compound, the “Ratio T/C (treated/control reaction thresholds)” value in test [5] stood at 1.57.
